From patent US20210115106A1, “MODIFIED T CELL RECEPTORS” (JANUX THERAPEUTICS, INC., priority 2017, published 2021)
Ends that are not written are not given here.

Columns and labels:
[1] = system: TCR-1; test: Primary phagemid binding ELISA, TCR-1 wells; conditions: ELISA signal; phagemid supernatant on Neutravidin captured biotin-conjugated TCR-1
Text: (§3) The next day the deep well plates were centrifuged to separate the soluble phagemid from the E. coli cells. […] After binding at 4 degrees the plates were washed, and specifically bound phage were detected by anti-m13 HRP conjugated antibodies using standard TMB-based chromogenic ELISA procedures. Daughter plates or individual wells were subjected to standard DNA sequencing for clonal peptide sequence identification.

[2] = biological target: T1, Neutravidin (Gallus gallus, UniProt P02701); test: Primary phagemid binding ELISA, Neutravidin control wells (TCR-1 panning); conditions: ELISA signal; Neutravidin alone
T1 sequence (P02701 25-152): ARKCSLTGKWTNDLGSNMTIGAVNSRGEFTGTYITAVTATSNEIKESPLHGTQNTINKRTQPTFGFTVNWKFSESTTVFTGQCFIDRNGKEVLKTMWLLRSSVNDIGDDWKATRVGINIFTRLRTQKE
Text: as §3

[3] = system: TCR-1; test: Secondary pMHC phagemid competition ELISA on TCR-1; type: binding; conditions: for Secondary pMHC phagemid competition ELISA binding with 200 nM pMHC competitor / Secondary pMHC phagemid competition ELISA IC-3 binding no pMHC competitor: ELISA signal; for Secondary pMHC phagemid competition ELISA binding with 200 nM pMHC competitor: 200 nM Human MAGE-A3 pMHC competitor; for % binding with pMHC competition: TCR-1, 200 nM pMHC competitor relative to no competitor
Method: Human MAGE-A3 pMHC was added to wells to block the active binding site. After a brief incubation period phagemid supernatants were added to both sets of wells. Following further incubation at 4 degrees the plates were washed and specifically bound phage were detected by anti-m13 HRP conjugated antibodies using standard TMB-based chromogenic ELISA procedures. Phagemid clones binding within the antigenic binding pocket would be blocked and be identified by a decreased ELISA signal, compared to a well lacking previous pMHC blockade.

[4] = biological target: T1, Neutravidin; test: Primary phagemid binding ELISA, Neutravidin control wells (TCR-8 panning); conditions: ELISA signal; Neutravidin alone
Method: The next day the deep well plates were centrifuged to separate the soluble phagemid from the E. coli cells. The phagemid containing supernatants were then combined with PBS-Tween 20 (0.05%)+BSA (1%) blocking buffer and incubated in ELISA wells containing Neutravidin captured biotin-conjugated TCR-8 (Table 1) or Neutravidin alone. After binding at 4 degrees the plates were washed and specifically bound phage were detected by anti-m13 HRP conjugated antibodies using standard TMB-based chromogenic ELISA procedures. Daughter plates or individual wells were subjected to standard DNA sequencing for clonal peptide sequence identification.

[5] = system: TCR-8; test: Primary phagemid binding ELISA, TCR-8 wells; conditions: ELISA signal; phagemid supernatant on Neutravidin captured biotin-conjugated TCR-8
Chain of TCR-8 (as listed by the source): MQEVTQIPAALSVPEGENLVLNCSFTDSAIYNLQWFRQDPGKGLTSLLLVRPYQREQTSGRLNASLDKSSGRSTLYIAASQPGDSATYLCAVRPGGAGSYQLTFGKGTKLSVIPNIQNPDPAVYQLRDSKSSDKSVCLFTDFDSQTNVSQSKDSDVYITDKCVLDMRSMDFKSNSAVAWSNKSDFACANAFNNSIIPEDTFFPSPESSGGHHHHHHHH
Chain of TCR-8 (as listed by the source): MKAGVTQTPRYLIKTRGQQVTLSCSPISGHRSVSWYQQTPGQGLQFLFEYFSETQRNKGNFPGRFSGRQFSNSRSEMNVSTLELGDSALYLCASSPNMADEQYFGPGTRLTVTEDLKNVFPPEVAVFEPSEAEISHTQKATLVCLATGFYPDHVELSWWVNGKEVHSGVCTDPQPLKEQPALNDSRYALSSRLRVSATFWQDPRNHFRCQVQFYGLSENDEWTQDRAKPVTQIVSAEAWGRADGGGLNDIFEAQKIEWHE

[6] = system: TCR-8; test: Secondary pMHC phagemid competition ELISA on TCR-8; type: binding
Method: TCR-8 immobilized and blocked 96-well ELISA plates similar to above were prepared. Tetrameric human MAGE-A3 pMHC was first added to wells to block the active binding site. After a brief incubation period (30-60 minutes) phagemid supernatants were added to both sets of wells. Following further incubation at 4 degrees the plates were washed and specifically bound phage were detected by anti-m13 HRP conjugated antibodies using standard TMB-based chromogenic ELISA procedures.

[7] = system: TCR-1, TCR-8, TCR-9, TCR-10; test: BLI binding specificity of Peptide-5 against TCR-1 and closely related TCRs; conditions: TCRs from 50 nM or at 100 uM on saturating Peptide-5
Method: The other TCRS chosen are closely related to the target TCR-1. BLI based kinetic binding of TCR-land closely related TCRS, TCR-8, TCR-9, and TCR-10 to inhibitory peptides was measured using a ForteBio Octet RED96 instrument. Biotinylated peptides were first captured on streptavidin biosensors. Sensors were quenched using excess biocytin and then baselined in buffer. TCRs were titrated in a 2-fold dilution series starting from 50 nM and were associated onto the inhibitory peptide loaded biosensor. Association signal was monitored in real-time. Biosensors were then transferred to buffer and the dissociation of TCR was measured in real-time. Response data was baseline corrected and fit to a 1:1 binding model used to calculate association and dissociation rates.
BLI based kinetic binding of TCR-land closely related TCRS, TCR-8, TCR-9, and TCR-10 to inhibitory peptides was measured using a ForteBio Octet RED96 instrument. Biotinylated peptides were first captured on streptavidin biosensors until signal saturation. Sensors were quenched using excess biocytin and then baselined in buffer. TCRs were associated 100 uM onto the inhibitory peptide loaded biosensor. Association signal was monitored in real-time. Biosensors were then transferred to buffer and the dissociation of TCR was measured in real-time. […]

[8] = biological target: TCR-1 binding to MAGE-A3 pMHC; test: Peptide inhibition of TCR-1 kinetic binding to MAGE-A3 pMHC (BLI); conditions: 50 nM TCR-1; result in words
Chain of TCR-1 binding to MAGE-A3 pMHC (as listed by the source): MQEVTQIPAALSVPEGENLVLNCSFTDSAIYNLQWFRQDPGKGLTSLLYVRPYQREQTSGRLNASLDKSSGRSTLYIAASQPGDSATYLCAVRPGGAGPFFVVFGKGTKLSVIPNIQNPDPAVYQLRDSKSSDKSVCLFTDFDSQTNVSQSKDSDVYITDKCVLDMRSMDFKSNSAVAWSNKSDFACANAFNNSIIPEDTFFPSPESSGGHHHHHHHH
Chain of TCR-1 binding to MAGE-A3 pMHC (as listed by the source): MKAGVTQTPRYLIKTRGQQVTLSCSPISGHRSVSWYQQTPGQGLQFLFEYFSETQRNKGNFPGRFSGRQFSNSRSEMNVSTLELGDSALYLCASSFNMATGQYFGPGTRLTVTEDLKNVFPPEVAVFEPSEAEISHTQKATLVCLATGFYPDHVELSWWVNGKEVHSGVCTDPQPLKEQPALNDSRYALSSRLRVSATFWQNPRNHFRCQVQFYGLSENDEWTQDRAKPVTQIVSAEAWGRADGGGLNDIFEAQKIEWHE
Method: Zero concentration of inhibitory peptide (100% binding) or zero concentration of TCR (0% binding) was used as a control. Biotinylated pMHC was captured on streptavidin biosensors. Sensors were quenched using excess biocytin and then baselined in buffer. Inhibitory peptide and TCR mixtures were associated onto the pMHC loaded biosensor. Association signal was monitored in real-time. Biosensors were then transferred to buffer and the dissociation signal was measured in real-time.
Zero concentration of inhibitory peptide (100% binding) or zero concentration of TCR (0% binding) was used as a control. Biotinylated pMHC was captured on streptavidin biosensors. Sensors were quenched using excess biocytin and then baselined in buffer. […] Association signal was monitored in real-time. Biosensors were then transferred to buffer and the dissociation signal was measured in real-time. Data was baseline corrected. The maximal association signal was normalized from 100% (0 uM inhibitory peptide control) to 0% (0 uM TCR control) and plotted versus log-scale inhibitory peptide concentration. […]
Inhibitory peptide titrated in a 2-fold dilution series starting from 100 uM was first incubated with a constant concentration of 50 nM TCR. […] Association signal was monitored in real-time. Biosensors were then transferred to buffer and the dissociation signal was measured in real-time. […]

[9] = biological target: TCR-1; test: ELISA-based binding of TCR-1 to synthetic peptides; conditions: result in words; numbers are in Table 3, not printed here
Method: (§1) ELISA-based binding: High binding plates were first coated with neutravidin. Neutravidin coated plates were blocked using bovine serum albumin in buffer and washed. Biotinylated peptide or pMHC at a single concentration of 100 nM was captured on neutravidin coated plates, quenched using excess biocytin, and washed. […] TCR was then titrated onto the peptide or pMHC captured plates for 1 hour and washed. […] Plates were then developed using tetramethylbenzidine (TMB) for 5-10 min and stopped using acid.
as §1, with “High” for “ELISA-based binding: High”, “peptide” for “peptide or pMHC”, “acid. Absorbance at 450 nm was measured for each plate and plotted versus log-scale TCR concentration. […]” for “acid.”
High binding plates were first coated with neutravidin. Neutravidin coated plates were blocked using bovine serum albumin in buffer and washed. […] Absorbance at 450 nm was measured for each plate and plotted versus log-scale TCR concentration.

[10] = biological target: TCR-1 binding to MAGE-A3 pMHC; test: Peptide inhibition of TCR-1 binding to MAGE-A3 pMHC in competitive binding ELISA; conditions: 1 nM TCR-1, result in words
Method: (§2) Peptide inhibition in competitive binding ELISAs: High binding plates were first coated with neutravidin. Neutravidin coated plates were blocked using bovine serum albumin in buffer and washed. Biotinylated pMHC at a single concentration of 100 nM was captured on neutravidin coated plates, quenched using excess biocytin, and washed. […] Inhibitory peptide and TCR mixtures were then added to the pMHC captured plates for 30 min and washed. […] Plates were then developed using tetramethylbenzidine (TMB) for 5-10 min and stopped using acid.
as §2, with “High” for “Peptide inhibition in competitive binding ELISAs: High”, “acid. Absorbance at 450 nm was measured for each plate and plotted versus log-scale inhibitory peptide concentration.” for “acid.”
High binding plates were first coated with neutravidin. Neutravidin coated plates were blocked using bovine serum albumin in buffer and washed. […] Absorbance at 450 nm was measured for each plate and plotted versus log-scale inhibitory peptide concentration.

[11] = biological target: T1, Neutravidin; test: primary phagemid binding ELISA, Neutravidin alone

GGLADYCEHPMCYWYS [J250_G02]
Primary Phagemid binding ELISA TCR-1 wells [1]: 3.122 | Primary Phagemid binding ELISA Neutravidin control wells [2]: 0.152

GGLADYCEHPMCYWYS [J272_B10]
Secondary pMHC phagemid competition ELISA binding with 200 nM pMHC competitor [3]: 0.075 | Secondary pMHC phagemid competition ELISA IC-3 binding no pMHC competitor [3]: 1.683 | % binding with pMHC competition [3]: 4% | Primary Phagemid binding ELISA Neutravidin control wells [2]: 0.068

GGVICENWQGDRVCWF [J308_A09] (phagemid-displayed)
Primary phagemid binding ELISA Netravidin Control wells [4]: 0.236 | Primary phagemid binding ELISA TCR-8 wells [5]: 3.065 | Secondary pMHC phagemid competition ELISA binding with 100 nM pMHC tetramer competitor ([6]; ELISA signal, 100 nM tetrameric human MAGE-A3 pMHC): 0.570 | Secondary pMHC phagemid competition ELISA TCR-8 binding no pMHC competitor ([6]; ELISA signal, no pMHC competitor): 1.877 | % binding with pMHC competition ([6]; TCR-8, 100 nM pMHC tetramer competitor relative to no competitor): 30%

GGVICENWQGDRVCWF [J308_A03] (phagemid-displayed)
Primary phagemid binding ELISA Netravidin Control wells [4]: 0.132 | Primary phagemid binding ELISA TCR-8 wells [5]: 3.157

GGDVRCFMRMMECVLL [J289_D10]
Secondary pMHC phagemid competition ELISA binding with 200 nM pMHC competitor [3]: 0.132 | Secondary pMHC phagemid competition ELISA IC-3 binding no pMHC competitor [3]: 1.881 | % binding with pMHC competition [3]: 7% | Primary Phagemid binding ELISA Neutravidin control wells [2]: 0.120

GGVSCKDVYDEAFCWT [Peptide-5, synthesized with a biotinylated linker and C-terminal amidation]
binding specificity for TCR-1 against closely related TCRs [7]: selective for TCR-1 | IC50, inhibition of TCR-1 binding to MAGE-A3 pMHC [8]: lowest

Peptide-24: Peptide-5 alanine scan peptide, substitution of lysine at the 6th amino acid position (GGVSCADVYDEAFCWT-NH2; not fully specified; cysteine pairing not given here; also: biotinylated linker, place not given here)
binding EC50 (TCR-1 binding to peptide by ELISA) [9]: mild improvements | competitive binding IC50 [10]: mild improvement

GGDVRCFMRMMECVLL [J289_D10]
ELISA signal (Neutravidin control wells) [11]: 0.12
